The target of the assay is MutS (Pseudomonas aeruginosa, UniProt Q9HY08). The assay is described as follows: biochemical.

Drawing on paper doi:10.1101/2020.05.01.070730v2 (biorxiv, 2021), this text covers EC50 for one molecule.

Chain of MutS (Q9HY08 whole entry): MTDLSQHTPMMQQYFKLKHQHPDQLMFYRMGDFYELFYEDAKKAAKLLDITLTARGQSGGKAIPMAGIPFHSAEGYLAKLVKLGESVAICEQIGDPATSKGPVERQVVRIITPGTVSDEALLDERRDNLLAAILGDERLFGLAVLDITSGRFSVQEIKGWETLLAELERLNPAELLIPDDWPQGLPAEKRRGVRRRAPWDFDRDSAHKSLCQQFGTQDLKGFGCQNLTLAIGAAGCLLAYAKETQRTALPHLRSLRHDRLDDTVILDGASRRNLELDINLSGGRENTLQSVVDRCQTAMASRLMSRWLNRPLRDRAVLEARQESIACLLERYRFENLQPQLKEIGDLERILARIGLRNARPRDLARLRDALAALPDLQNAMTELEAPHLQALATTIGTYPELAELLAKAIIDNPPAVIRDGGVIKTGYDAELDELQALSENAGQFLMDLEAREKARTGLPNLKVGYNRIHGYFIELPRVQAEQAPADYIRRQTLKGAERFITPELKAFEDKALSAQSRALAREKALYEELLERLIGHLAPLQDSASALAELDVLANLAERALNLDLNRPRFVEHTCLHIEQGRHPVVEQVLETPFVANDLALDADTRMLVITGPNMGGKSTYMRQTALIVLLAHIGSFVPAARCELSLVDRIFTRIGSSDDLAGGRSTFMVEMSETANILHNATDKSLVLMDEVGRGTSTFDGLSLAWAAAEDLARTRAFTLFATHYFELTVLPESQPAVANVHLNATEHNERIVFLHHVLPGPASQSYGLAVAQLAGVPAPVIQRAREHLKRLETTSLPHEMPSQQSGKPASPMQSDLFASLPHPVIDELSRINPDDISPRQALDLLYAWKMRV

As to `Nc1ncnc2c1ncn2[C@@H]1O[C@H](COP(=O)(O)OP(=O)(O)OP(=O)(O)O)[C@@H](O)[C@H]1O` [ATP], the EC50 – broadly, the concentration giving half of the maximal effect – was 618 ± 49 µM.
